In patent publication US20210187077A1, “GLP-1 Agonist Conjugates for Sustained Glycemic Control” (IDAHO STATE UNIVERSITY, priority 2019, published 2021):

Assay: hydroxyapatite (HA) binding in vitro study (bone mineral affinity)
Method: To evaluate the bone mineral affinity of the GLP-1 conjugate described in Example 1, hydroxyapatite (HA) binding in vitro studies were conducted. Briefly, 10 μg of GLP-1 or equivalent amount of GLP-1 conjugate was mixed with 5 mg of HA powder in 500 μL of the binding buffer with various concentrations (double-distilled water (D.D.), 10 mM PBS [pH 7.4], 50 mM PBS [pH 7.4], acetate buffer [pH 4]) . Similarly, tubes containing an equivalent amount of GLP-1 or GLP-1 conjugate in corresponding buffers without HA were used as a negative control. Mixtures were shaken gently at room temperature for 1 hour and then were centrifuged at 10,000 g for 5 minutes. The supernatant was separated and assayed for unbound drug, using a fluorescence spectrometer (λEx 215 nm, λEm 305 nm). The percentage of HA binding was calculated as:
(Intensity of control−the intensity of supernatants)/Intensity of control×100%
Each experiment was measured in triplicate.

- effect of pH and phosphate ion concentration on HA binding capacity (acidic pH (Acetate buffer pH 4 vs PBS pH 7.4) and lower buffer concentration (10 mM vs 50 mM)): higher binding
Substance: H-HAE GTF TSD VSS YLE GQA A-K(Mal-PEGn-BP)-E FIA WLV KGR —NH2 [GLP-1 conjugate]
- binding capacity to HA compared with plain GLP-1 peptide (various medium (D.D. water, 10 mM PBS pH 7.4, 50 mM PBS pH 7.4, acetate buffer pH 4), 5 mg HA, 1 hour, room temperature, p<0.01): significantly different binding capacity to HA
